Holding throughout (assay): PDE4 Activity Assay
What all share (details): pH 7.5; 22 °C

The target of experiment [1] is cAMP-specific 3',5'-cyclic phosphodiesterase 4B (Homo sapiens, UniProt Q07343). The procedure:
(§1) PDE4 catalytic activity was monitored by measuring the hydrolysis of [3H]-cAMP to [3H]-AMP using PDE-SPA kit (Amersham International). [3H]-AMP was captured by the SPA beads, and quantified on a Wallac-Microbeta scintillation counter. A linear reaction progress curve (30 min) and a linear enzyme concentration response (0 to 500 pM) were observed. The IC50 value was calculated from an 11-point dose-response curve performed in duplicate using a 4-parameter least-squares nonlinear regression fit.

The target of experiment [2] is cAMP-specific 3',5'-cyclic phosphodiesterase 4A (Homo sapiens, UniProt P27815). Here is the method:
as §1

Experiment [3] concerns the target cAMP-specific 3',5'-cyclic phosphodiesterase 4D (Homo sapiens, UniProt Q08499). The procedure:
as §1

The target in experiment [4] is cAMP-specific 3',5'-cyclic phosphodiesterase 4C (Homo sapiens, UniProt Q08493). Here is the method:
as §1

Sequence of cAMP-specific 3',5'-cyclic phosphodiesterase 4C (Q08493 whole entry): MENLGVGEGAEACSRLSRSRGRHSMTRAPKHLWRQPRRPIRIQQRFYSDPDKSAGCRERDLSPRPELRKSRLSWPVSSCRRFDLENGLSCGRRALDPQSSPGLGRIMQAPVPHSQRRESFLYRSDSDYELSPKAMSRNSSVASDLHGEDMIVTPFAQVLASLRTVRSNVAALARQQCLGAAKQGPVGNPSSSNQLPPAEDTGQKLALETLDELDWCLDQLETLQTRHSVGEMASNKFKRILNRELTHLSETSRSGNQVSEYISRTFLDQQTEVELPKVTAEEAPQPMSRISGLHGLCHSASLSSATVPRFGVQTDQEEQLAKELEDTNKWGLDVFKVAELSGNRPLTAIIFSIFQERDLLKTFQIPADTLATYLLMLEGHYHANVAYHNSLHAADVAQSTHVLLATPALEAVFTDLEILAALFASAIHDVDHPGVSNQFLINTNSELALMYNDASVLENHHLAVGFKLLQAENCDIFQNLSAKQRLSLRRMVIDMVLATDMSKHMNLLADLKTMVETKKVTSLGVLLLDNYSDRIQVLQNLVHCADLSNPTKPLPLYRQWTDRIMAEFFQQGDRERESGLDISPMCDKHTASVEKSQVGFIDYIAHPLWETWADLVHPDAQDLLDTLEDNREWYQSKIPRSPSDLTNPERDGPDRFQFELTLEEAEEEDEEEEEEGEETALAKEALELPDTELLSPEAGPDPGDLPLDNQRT
Sequence of cAMP-specific 3',5'-cyclic phosphodiesterase 4B (Q07343 whole entry): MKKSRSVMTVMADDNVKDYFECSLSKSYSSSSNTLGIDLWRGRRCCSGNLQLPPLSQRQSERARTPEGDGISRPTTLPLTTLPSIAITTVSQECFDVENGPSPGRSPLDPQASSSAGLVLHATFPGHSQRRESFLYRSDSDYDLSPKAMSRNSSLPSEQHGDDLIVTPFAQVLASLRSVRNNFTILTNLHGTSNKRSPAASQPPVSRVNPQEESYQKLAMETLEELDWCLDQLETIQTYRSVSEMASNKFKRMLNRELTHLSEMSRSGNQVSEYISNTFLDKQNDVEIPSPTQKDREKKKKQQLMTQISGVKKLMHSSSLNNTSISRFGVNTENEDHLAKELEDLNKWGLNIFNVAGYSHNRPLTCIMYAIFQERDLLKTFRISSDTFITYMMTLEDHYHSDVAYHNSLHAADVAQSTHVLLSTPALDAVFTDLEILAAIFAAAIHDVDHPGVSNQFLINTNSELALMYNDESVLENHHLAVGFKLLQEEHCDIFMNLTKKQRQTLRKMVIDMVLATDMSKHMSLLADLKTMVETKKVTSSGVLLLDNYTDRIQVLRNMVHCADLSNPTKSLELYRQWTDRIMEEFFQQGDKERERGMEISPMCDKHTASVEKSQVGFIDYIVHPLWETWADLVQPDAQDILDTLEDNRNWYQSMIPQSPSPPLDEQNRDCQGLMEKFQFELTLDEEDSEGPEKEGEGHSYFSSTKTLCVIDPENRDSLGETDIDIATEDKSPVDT
Sequence of cAMP-specific 3',5'-cyclic phosphodiesterase 4A (P27815 whole entry): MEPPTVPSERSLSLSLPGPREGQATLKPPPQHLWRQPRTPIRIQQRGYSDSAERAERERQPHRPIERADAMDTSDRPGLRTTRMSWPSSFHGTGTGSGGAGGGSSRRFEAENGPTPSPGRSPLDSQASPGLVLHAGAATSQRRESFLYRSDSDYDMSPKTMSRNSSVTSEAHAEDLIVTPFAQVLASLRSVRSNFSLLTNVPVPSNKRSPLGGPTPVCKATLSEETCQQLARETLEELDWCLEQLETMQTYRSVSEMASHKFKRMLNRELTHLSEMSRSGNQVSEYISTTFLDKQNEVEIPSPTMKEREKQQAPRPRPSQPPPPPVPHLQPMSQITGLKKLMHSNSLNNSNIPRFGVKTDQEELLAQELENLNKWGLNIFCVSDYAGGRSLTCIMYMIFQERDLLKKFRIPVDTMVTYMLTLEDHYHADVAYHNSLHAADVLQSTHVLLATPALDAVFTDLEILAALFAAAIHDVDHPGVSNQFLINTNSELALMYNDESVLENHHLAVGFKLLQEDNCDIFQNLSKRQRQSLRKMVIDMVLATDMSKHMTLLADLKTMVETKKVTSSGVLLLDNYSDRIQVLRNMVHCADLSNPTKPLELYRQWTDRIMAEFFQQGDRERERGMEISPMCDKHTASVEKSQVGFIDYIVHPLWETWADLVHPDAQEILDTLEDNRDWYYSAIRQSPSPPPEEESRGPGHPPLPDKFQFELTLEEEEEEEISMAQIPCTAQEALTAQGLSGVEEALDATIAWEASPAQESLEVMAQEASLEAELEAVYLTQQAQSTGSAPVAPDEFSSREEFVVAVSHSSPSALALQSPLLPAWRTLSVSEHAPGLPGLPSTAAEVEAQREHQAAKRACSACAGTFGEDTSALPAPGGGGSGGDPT
Sequence of cAMP-specific 3',5'-cyclic phosphodiesterase 4D (Q08499 whole entry): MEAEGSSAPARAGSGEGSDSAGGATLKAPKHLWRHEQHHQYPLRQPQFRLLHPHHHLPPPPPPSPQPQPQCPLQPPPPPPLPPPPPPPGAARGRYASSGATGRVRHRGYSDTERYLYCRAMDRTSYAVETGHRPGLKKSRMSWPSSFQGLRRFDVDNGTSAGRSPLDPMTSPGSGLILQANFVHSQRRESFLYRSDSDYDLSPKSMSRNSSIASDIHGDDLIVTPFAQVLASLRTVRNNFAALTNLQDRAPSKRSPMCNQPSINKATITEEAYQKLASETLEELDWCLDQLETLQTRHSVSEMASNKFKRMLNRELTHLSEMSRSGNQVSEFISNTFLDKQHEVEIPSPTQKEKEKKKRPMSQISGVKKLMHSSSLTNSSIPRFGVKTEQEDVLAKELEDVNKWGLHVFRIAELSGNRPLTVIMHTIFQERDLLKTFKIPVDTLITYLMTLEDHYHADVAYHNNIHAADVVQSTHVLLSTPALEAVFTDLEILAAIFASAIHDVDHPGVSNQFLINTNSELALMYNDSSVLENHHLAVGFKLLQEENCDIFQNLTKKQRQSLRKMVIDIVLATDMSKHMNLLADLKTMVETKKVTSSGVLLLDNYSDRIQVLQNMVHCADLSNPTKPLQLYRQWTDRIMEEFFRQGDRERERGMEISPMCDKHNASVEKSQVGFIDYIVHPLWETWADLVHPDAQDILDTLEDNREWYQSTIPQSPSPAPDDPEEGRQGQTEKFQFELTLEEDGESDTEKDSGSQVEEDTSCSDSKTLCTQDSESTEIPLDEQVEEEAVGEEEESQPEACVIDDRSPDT

A word on the IC50: it is the midpoint of a concentration-inhibition curve. A high value points to a need for much substance. Turning to `[O-][n+]1cccc(C[C@@H](c2ccc(OC(F)F)c(OC3CC3)c2)c2ncc(C(O)(C(F)(F)F)C(F)(F)F)s2)c1` [3-[(2S)-2-[3-cyclopropoxy-4-(difluoromethoxy)phenyl]-2-[5-(1,1,1,3,3,3-hexafluoro-2-hydroxypropan-2-yl)-1,3-thiazol-2-yl]ethyl]-1-oxidopyridin-1-ium], the IC50 in experiment [1] is 0.4 nM; in experiment [2] it was 0.4 nM; in experiment [3] it was 0.4 nM; in experiment [4], 1 nM.
Turning to `[O-][n+]1cccc(C[C@H](c2ccc(OC(F)F)c(OC3CC3)c2)c2ncc(C(O)(C(F)(F)F)C(F)(F)F)s2)c1` [(R)-(-)-3-{2-[(3-cyclopropyloxy-4-difluromethoxy)phenyl]-2-[5-(2-(1-hydroxy-1-trifluoromethyl-2,2,2-trifluoro)ethyl)thiazolyl]ethyl}pyridine N-Oxide], the concentration for half-maximal inhibition (IC50) was 40 nM in experiment [1], 56 nM in experiment [2] and 135 nM in experiment [4].

(Values after BindingDB's records for doi:10.1021/jm051273d (University of North Carolina At Chapel Hill, 2006).)
